GI50 and TGI data for 8 molecules are collected here from PubChem BioAssay (NCI).

Among the test systems are MCF7 breast; PC-3 prostate; RPMI-8226 leukemia; TK-10 renal; NCI-H226 lung; SF-295 CNS; BT-549 breast; MOLT-4 leukemia; M14 melanoma; CAKI-1 renal.
What all share (assay): NCI anticancer screen, dose series, 48 h

The structures appear in SMILES notation.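 Five concentrations, 48 hours, 96-well plates. GI50 = concentration required for 50% inhibition of growth. TGI denotes the concentration required for complete inhibition of growth.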 Bounds are passed on as bounds.

`CCN(CC)CCNc1ccc(C)c2sc3cc(Cl)ccc3c(=O)c12`: the GI50 in the experiment with MCF7 breast is 1.55 µM; with PC-3 prostate, 1.54 µM; with RPMI-8226 leukemia, 1.79 µM; in the experiment with TK-10 renal, 2.2 µM; in the experiment with NCI-H226 lung, 1.74 µM; in the experiment on SF-295 CNS, 1.67 µM. Also, the figures for the GI50 in the experiment on BT-549 breast, in the experiment on MOLT-4 leukemia and with M14 melanoma were 2.36 µM, 1.55 µM and 1.8 µM, respectively. The TGI in the experiment with MCF7 breast was found to be 3.2 µM; with PC-3 prostate, 3.01 µM; in the experiment on RPMI-8226 leukemia, 3.86 µM; in the experiment with TK-10 renal, 3.77 µM; in the experiment with NCI-H226 lung, 3.58 µM; in the experiment on SF-295 CNS, 3.16 µM. For the same molecule, the TGI with BT-549 breast stood at 6.95 µM; with MOLT-4 leukemia, 3.28 µM; in the experiment with M14 melanoma, 3.4 µM.

`C[n+]1c(/C=C/c2c[nH]c3ccccc23)ccc2ccccc21`: the GI50 in the experiment with MCF7 breast is 2.16 µM; in the experiment on PC-3 prostate, 9.74 µM; in the experiment on RPMI-8226 leukemia it was 5.63 µM; in the experiment with NCI-H226 lung, 11 µM; in the experiment on SF-295 CNS, 6.93 µM; in the experiment with BT-549 breast, 18.6 µM. The results for the GI50 with MOLT-4 leukemia, with M14 melanoma and in the experiment on CAKI-1 renal were 4.03 µM, 14 µM and 14.6 µM, respectively. Besides, the TGI with MCF7 breast amounted to 34.1 µM; in the experiment with PC-3 prostate, 25.8 µM; in the experiment on RPMI-8226 leukemia, 28.2 µM; in the experiment on NCI-H226 lung, 29.1 µM; in the experiment with SF-295 CNS it was 20.5 µM; in the experiment with BT-549 breast, 34.2 µM. Further, the TGI amounted to 15.5 µM in the experiment with MOLT-4 leukemia, 33.2 µM in the experiment with M14 melanoma and 34.9 µM with CAKI-1 renal.

`O=C(c1ccco1)c1nc2cc(C(F)(F)F)ccc2nc1C(F)(F)F`: the GI50 with MCF7 breast was 40.6 µM; in the experiment on PC-3 prostate, more than 100 µM; in the experiment with RPMI-8226 leukemia it was 49.8 µM; in the experiment with TK-10 renal, more than 100 µM; with SF-295 CNS, more than 100 µM; with BT-549 breast it was more than 100 µM. For the same molecule, the GI50 in the experiment on MOLT-4 leukemia, with M14 melanoma and in the experiment on CAKI-1 renal was more than 100 µM in each case. Moreover, the TGI with MCF7 breast, in the experiment on PC-3 prostate, with RPMI-8226 leukemia, in the experiment with TK-10 renal, in the experiment with SF-295 CNS and in the experiment on BT-549 breast was more than 100 µM throughout. The TGI in the experiment on MOLT-4 leukemia, in the experiment on M14 melanoma and in the experiment on CAKI-1 renal was more than 100 µM each time.

Regarding `CC[C@@H]1[C@@H](C)O[C@@](O)([C@@H](C)[C@H](O)[C@H](C)[C@H]2OC(=O)/C=C/C=C/[C@H](C)[C@@H]([C@@H](C)[C@@H](O)[C@H](C)[C@@]3(O)C[C@@H](O[C@H]4C[C@@H](O)[C@H](O)C(C)O4)[C@H](CC)[C@@H](C)O3)OC(=O)/C=C/C=C/[C@@H]2C)C[C@H]1O[C@@H]1C[C@@H](O)[C@H](O)C(C)O1` (stereo not given in full), the GI50 in the experiment with MCF7 breast was 0.0843 µM; in the experiment on PC-3 prostate, 0.0568 µM; with RPMI-8226 leukemia it was 0.0643 µM; with TK-10 renal, 0.0746 µM; in the experiment on NCI-H226 lung it was 0.0655 µM; in the experiment with SF-295 CNS, 0.061 µM. Moreover, the results for the GI50 with BT-549 breast, in the experiment with MOLT-4 leukemia and in the experiment on M14 melanoma were 0.0569 µM, 0.0933 µM and 0.0653 µM, respectively. The TGI in the experiment with MCF7 breast is 0.287 µM; in the experiment on PC-3 prostate, 0.147 µM; in the experiment with RPMI-8226 leukemia, 0.153 µM; in the experiment with TK-10 renal it was 0.212 µM; in the experiment with NCI-H226 lung, 0.139 µM; with SF-295 CNS it was 0.132 µM. The figures for the TGI with BT-549 breast, in the experiment on MOLT-4 leukemia and in the experiment on M14 melanoma were 0.124 µM, 0.219 µM and 0.142 µM, respectively.

With `COC(=O)[C@@H](C)C[C@H](Cc1cn(C)c2ccccc12)NC(=O)c1csc([C@@H](C[C@H](C(C)C)N(C)C(=O)[C@@H](NC(=O)[C@H]2CCCCN2C)C(C)C)OC(C)=O)n1`, the GI50 in the experiment on MCF7 breast is 0.00524 µM; with PC-3 prostate, 0.0139 µM; in the experiment on RPMI-8226 leukemia, 0.00776 µM; in the experiment with TK-10 renal, 2.77 µM; with NCI-H226 lung it was 0.0983 µM; in the experiment with SF-295 CNS it was 0.024 µM. Besides, the GI50 in the experiment on BT-549 breast is less than 0.0113 µM; with MOLT-4 leukemia, 0.013 µM; with M14 melanoma, 0.0121 µM. The TGI is more than 16.7 µM in the experiment with MCF7 breast; more than 16.7 µM with PC-3 prostate; more than 16.7 µM in the experiment with RPMI-8226 leukemia; more than 16.7 µM with TK-10 renal; more than 12 µM in the experiment with NCI-H226 lung; more than 16.7 µM in the experiment on SF-295 CNS. The values for the TGI in the experiment with BT-549 breast, in the experiment on MOLT-4 leukemia and in the experiment with M14 melanoma were 0.49 µM, more than 16.7 µM and 0.645 µM, respectively.

Consider `NC1=CC(=O)c2cccnc2C1=O`, for which the GI50 with PC-3 prostate was 2.22 µM; in the experiment with RPMI-8226 leukemia it was 1.81 µM; in the experiment on TK-10 renal, 15.6 µM; with NCI-H226 lung it was 7.61 µM; with SF-295 CNS, 1.62 µM; in the experiment on BT-549 breast, 1.58 µM. In addition, the GI50 with MOLT-4 leukemia is 1.01 µM; with M14 melanoma, 1.7 µM; in the experiment with CAKI-1 renal, 1.59 µM. Moreover, the TGI in the experiment on PC-3 prostate worked out at 7.55 µM; with RPMI-8226 leukemia, 4.58 µM; with TK-10 renal it was 29.2 µM; in the experiment on NCI-H226 lung, 27.7 µM; in the experiment on SF-295 CNS it was 3.1 µM; in the experiment with BT-549 breast it was 2.98 µM. Also, the TGI in the experiment with MOLT-4 leukemia turned out to be 3.45 µM; in the experiment on M14 melanoma, 3.24 µM; with CAKI-1 renal, 3.15 µM.

As to `C=CCC(N[C@@H](CO)c1ccccc1)c1cn(Cc2ccccc2Cl)c(=O)n(Cc2ccccc2Cl)c1=O` (stereo not given in full), the GI50 in the experiment on MCF7 breast is more than 100 µM; in the experiment on PC-3 prostate, 83.9 µM; in the experiment on RPMI-8226 leukemia, 55.8 µM; with TK-10 renal, more than 100 µM; in the experiment with NCI-H226 lung it was more than 100 µM; in the experiment with SF-295 CNS, more than 100 µM. In addition, the values for the GI50 with BT-549 breast, with M14 melanoma and in the experiment on CAKI-1 renal were 76.2 µM, more than 100 µM and 73.6 µM, respectively. Moreover, the TGI in the experiment with MCF7 breast, in the experiment with PC-3 prostate, with RPMI-8226 leukemia, in the experiment with TK-10 renal, in the experiment with NCI-H226 lung and in the experiment on SF-295 CNS was more than 100 µM each time. Moreover, the TGI in the experiment with BT-549 breast, in the experiment with M14 melanoma and with CAKI-1 renal was more than 100 µM throughout.

Regarding `Cc1c(O)c2ccccc2oc1=O`, the TGI in the experiment on MCF7 breast, with PC-3 prostate, in the experiment on RPMI-8226 leukemia, in the experiment on NCI-H226 lung, in the experiment with SF-295 CNS and in the experiment with BT-549 breast was more than 100 µM throughout. The TGI in the experiment on MOLT-4 leukemia, with M14 melanoma and in the experiment on CAKI-1 renal was more than 100 µM each time.
